Data from the NIST ThermoML archive (doi:10.1016/j.tca.2006.12.010).

What was measured:
[1] = 101.33 kPa, Resistive pulse heating
[2] = Molar enthalpy of transition or fusion; conditions: Crystal; Resistive pulse heating

[V] [vanadium]
thermal conductivity [W/m/K], [1]
Conditions | Crystal | Liquid
2199 K | 41.35 | 39.08
2250 K | – | 39.8
2300 K | – | 40.49
2350 K | – | 41.17
2400 K | – | 41.82
2450 K | – | 42.46
2500 K | – | 43.08
2550 K | – | 43.68
2600 K | – | 44.26
2650 K | – | 44.83
2700 K | – | 45.37
2750 K | – | 45.91
2800 K | – | 46.42
2850 K | – | 46.91
2900 K | – | 47.39

Conditions | Molar enthalpy of transition or fusion [kcal/mol]
[2] | 4.94
